From patent US11779573B2, “Crystalline forms of compounds for preventing or treating sensory hair cell death” (University of Washington, priority 2017, dated 2023)

Experiments:
Assay type in all cases: physicochemical
[1] = Dynamic vapor sorption (DVS), hygroscopicity and XRPD before/after; conditions: for hygroscopicity / crystallinity / polymorphic form (XRPD) after DVS: mesylate; for crystallinity / polymorphic form (XRPD) after DVS: XRPD before and after DVS cycles of relative humidity
Experimental: DVS studies were performed using a Surface Measurement Systems Ltd. DVS-1 No Video. The sample, typically 20-30 mg, was loaded into a balance pan and equilibrated at 0% relative humidity (RH). After the material was dried, the RH was increased at 10% per step for 1 hour per increment, ending at 95% RH. After completion of the sorption cycle, the sample was dried using the same method, and the cycle was repeated. The software used for data collection was DVSWin v3.01 No Video. Data analysis was performed using DVS Standard Analysis Suite v6.3.0 (Standard).

[2] = Solubility in water of scaled-up salts of Compound B (salt screen)
Experimental: These slurry experiments were also performed at gram scale with 25 mg/mL Compound B in 20 mL ethyl acetate with 1 equivalent acid.

[3] = Solubility of Compound 1 in water, shake-flask method; conditions: thermodynamic from solid, visually determined at 20° C., water added stepwise to 10 mg
Experimental: Water was added stepwise to 10 mg of Compound 1, with 15 minutes in between additions, until complete dissolution was obtained.

With `CN1[C@H]2CC[C@@H]1c1c(sc(NC(=O)Nc3ccc(Cl)cc3)c1C(N)=O)C2.CS(=O)(=O)O` [Compound 1, (4R,7S)-2-(3-(4-chlorophenyl)ureido)-9-methyl-5,6,7,8-tetrahydro-4H-4,7-epiminocyclohepta[b]thiophene-3-carboxamide mesylate] the “total mass uptake in the first sorption cycle” value ([1]; DVS, 0% to 95% RH, first sorption cycle) was 1.8%, the “total mass uptake in the second cycle” value ([1]; DVS, 0% to 95% RH, second cycle) was 1.6% and the hygroscopicity ([1]; DVS, listed as mesylate salt) was “slightly hygroscopic at high humidity levels”. The hygroscopicity ([1]; DVS) was “slightly hygroscopic”, the “crystallinity / polymorphic form (XRPD) after DVS” value ([1]; listed as mesylate salt) was “remained unchanged” and the “crystallinity / polymorphic form (XRPD) after DVS” value [1] was “unchanged”. The solubility [2] was 97 to 970 mg/mL and the solubility at 15 min [3] was > 97 mg/mL.
